Source: patent US20230348376A1 (TEIJIN PHARMA LIMITED, priority 2020, published 2023)

What was measured:
[1] = molecular target: T1, human VDR (Homo sapiens, UniProt P11473); test: Evaluation of VDR transcription activity in human osteoblasts (HOS cells), luciferase reporter; conditions: Activity (EC50, VDR transcription activity), HOS cells transfected with human VDR, human RXRα and DR3 luciferase reporter; 21 hours
T1 sequence (P11473 1-427): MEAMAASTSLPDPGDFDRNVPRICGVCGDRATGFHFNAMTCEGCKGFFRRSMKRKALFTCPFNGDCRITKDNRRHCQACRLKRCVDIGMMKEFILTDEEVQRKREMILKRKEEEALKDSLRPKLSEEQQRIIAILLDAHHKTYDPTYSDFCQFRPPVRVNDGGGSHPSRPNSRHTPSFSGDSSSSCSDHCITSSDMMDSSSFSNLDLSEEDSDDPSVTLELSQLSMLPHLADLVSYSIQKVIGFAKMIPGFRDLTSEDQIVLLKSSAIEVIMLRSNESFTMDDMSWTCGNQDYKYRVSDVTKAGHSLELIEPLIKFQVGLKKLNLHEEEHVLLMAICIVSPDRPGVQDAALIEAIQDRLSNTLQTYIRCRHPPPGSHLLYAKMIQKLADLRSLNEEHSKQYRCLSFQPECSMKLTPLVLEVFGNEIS
T1 sequence (P19793 1-462 partner): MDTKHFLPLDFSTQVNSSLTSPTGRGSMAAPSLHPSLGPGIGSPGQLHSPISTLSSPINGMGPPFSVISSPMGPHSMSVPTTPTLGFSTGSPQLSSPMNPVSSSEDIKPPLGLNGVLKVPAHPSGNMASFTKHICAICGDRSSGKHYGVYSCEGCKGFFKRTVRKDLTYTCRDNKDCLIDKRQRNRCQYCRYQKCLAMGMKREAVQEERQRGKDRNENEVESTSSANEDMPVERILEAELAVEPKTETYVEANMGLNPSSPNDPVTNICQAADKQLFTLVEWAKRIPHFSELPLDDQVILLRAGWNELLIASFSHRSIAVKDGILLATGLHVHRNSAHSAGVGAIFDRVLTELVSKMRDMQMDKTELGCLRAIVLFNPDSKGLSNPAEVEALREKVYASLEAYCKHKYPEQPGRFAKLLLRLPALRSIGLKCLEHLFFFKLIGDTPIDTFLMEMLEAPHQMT

[2] = system: rat oligodendrocyte progenitor cells; test: Promotive activity of rat oligodendrocyte progenitor cell differentiation-1 (MBP gene expression, mRNA); assay type: cell-based; conditions: Rattus norvegicus, Oligodendrocyte progenitor cell, 96 h, read-out: promotive activity at T3 base (MBP gene expression; DMSO 0%, T3 100%), 4 days, MBP/β actin mRNA
Description: Regarding vitamin D derivatives, which was confirmed to act on the vitamin D receptor (VDR) in Example 352, the promotive activity of oligodendrocyte progenitor cell (OPC) differentiation was evaluated by MBP gene expression (mRNA).
A forebrain obtained from SD rat (Charles River Japan, 1 day old) was crushed with 70 μm Cell Strainer (Falcon #352350), and a cell suspension was prepared by collecting the cells in oligodendrocyte progenitor cell separation medium (20% FBS/2 mM Glutamax (Gibco #35050-061)/i mM sodium pyruvate (Gibco #11360-070)/1% penicillin-streptomycin (Invitrogen #15140-122)/DMEM (Gibco #11960-044)). The cell suspension was seeded in a poly-D-lysine coated T75 flask (Thermo Fisher Scientific #132704) and cultured for about 2 weeks. After culturing, the flask was shaken using a rotary shaker ([…] #WB-101SRC) for about 1 hour (37° C., 100 rpm), and the supernatant was discarded to remove microglia. Subsequently, oligodendrocyte progenitor cell separation medium was added to the flask, and the mixture was similarly shaken for about 22 hours (37° C., 200 rpm), and the supernatant was collected to prepare oligodendrocyte progenitor cells.
The oligodendrocyte progenitor cell prepared was suspended in a differentiation medium (2% B27 (Thermo Fisher Scientific, Inc. #17504-044)/1% penicillin-streptomycin (Invitrogen Corporation #15140-122)/10 ng/mL CNTF (PeproTech Inc. #AF-450-13)/DMEM (Gibco #11960-044)), and seeded on a 96-well plate coated with poly-L-ornithine (FUJIFILM Wako Pure Chemical Corporation #163-27421) under the condition of 0.65×10^4 cells/well, and on a 384-well plate under the condition of 2×10^3 cells/well using an automatic dispensing system (LABCYTE #Echo555). […] After culturing, the cells seeded on the 96-well plate were subjected to immunostaining against MBP using following methods: fixation (4% paraformaldehyde solution, 30 minutes, room temperature), PBS washing, membrane permeation treatment (0.1% Trion X-100 (SIGMA #X100-100ML)/PBS, 3 minutes, room temperature), blocking (3% BSA (SIGMA #A9647-10G)/PBS, 1 hour, room temperature), primary antibody reaction (MBP antibody (abcam plc #ab40390), 2.5 μg/mL, 4° C., 24 hours), PBS washing, secondary antibody reaction (Alexa488 anti-rabbit IgG (Thermo Fisher Scientific, Inc. #A-11034), 5 μg/mL, room temperature, 1 hour), PBS washing, and nuclear staining (Hoechst33342 (DOJINDO #NU043), 10 μg/mL, room temperature, 5 minutes). Subsequently, images of each well were acquired using a fluorescence microscope (KEYENCE CORPORATION #BZ-X800), the number of MBP-positive cells and Hoechst 33342-positive cells were measured using an image analysis application (KEYENCE CORPORATION #BZ-X800 Analyzer), and then the ratio (the number of MBP-positive cells/the number of Hoechst33342-positive cells) was calculated. The cells seeded on the 384-well plate were subjected to real-time PCR using Cells-to-CT 1-Step TaqMan Kit (Thermo Fisher Scientific, Inc. #A25602) and QuantStudio 12K Flex Real-Time PCR System (Thermo Fisher Scientific, Inc. #4472380). The experiment was performed in accordance with the protocol attached to the kit. MBP (Thermo Fisher Scientific, Inc. #Assay ID Rn00690616_ml) and β actin (Thermo Fisher Scientific, Inc. #Assay ID Rn00667869_ml) were used as primers, and the expression levels of each were measured and the ratio (MBP/β actin) was calculated.

[3] = system: rat oligodendrocyte progenitor cells; test: Promotive activity of rat oligodendrocyte progenitor cell differentiation-2 (immunostaining of MBP); assay type: cell-based; conditions: Test 2; vitamin D derivative 2 μM, T3 30 nM; 4 days
Outline: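 Vitamin D derivatives scored as symbols for promoting differentiation, read out by MBP immunostaining. OPCs taken from supernatant after about 22 h shaking (37 °C, 200 rpm) in separation medium.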

[4] = Evaluation of brain penetration in mice (blood and brain concentration at brain Cmax); assay type: in vivo, mouse; conditions: 1 mg/kg single oral dose, C57BL/6J mice
Outline: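 Male C57BL/6J mice (8 weeks, n=3) dosed orally once at 1 […] mg/kg; plasma and brain collected at 0.25, 0.5, 1, 2, 4 and 8 h. Compound extracted with acetonitrile from brain homogenate and plasma, quantified by LC/MS/MS.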

C[C@H](CN1CCCC(O)(C(F)F)C1)[C@H]1CC[C@H]2/C(=C/C=C3C[C@@H](O)C[C@H](O)C3)CCC[C@]12C (single isomer, unassigned) [Compound C035a] showed an EC50 [1] of less than 1 nM and an activation at 1 µM [2] of no less than 20%.
In the case of COC1(C)CCCN(C[C@@H](C)[C@H]2CC[C@H]3/C(=C/C=C4C[C@@H](O)C[C@H](O)C4)CCC[C@]23C)C1 (single isomer, unassigned) [Compound C045a], the EC50 [1] is reported as 10 to 100 nM and the activation at 1 µM [2] is reported as no less than 20%.
In the case of C=C1C(O)CC(=C/C=C2\CCC[C@]3(C)[C@@H]([C@H](C)CN4CC[C@H](OC(F)(F)F)C4)CC[C@@H]23)C[C@H]1O (stereo in doubt) [Compound B067, (1R,3S)-5-(2-((1R,3aS,7aR,E)-7a-methyl-1-((S)-1-((S)-3-(trifluoromethoxy)pyrrolidin-1-yl)propan-2-yl)octahydro-4H-inden-4-ylidene)ethylidene)-2-methylenecyclohexane-1,3-diol], the EC50 [1] is reported as 1 to 10 nM and the activation at 1 µM [2] is reported as no less than 20%.
C[C@H](CN1CC[C@@H](OC(F)(F)F)C1)[C@H]1CC[C@H]2/C(=C/C=C3CC(O)C[C@H](O)C3)CCC[C@]12C (stereo in doubt) [Compound B070, (1R,3S)-5-(2-((1R,3aS,7aR,E)-7a-methyl-1-((S)-1-((R)-3-(trifluoromethoxy)pyrrolidin-1-yl)propan-2-yl)octahydro-4H-inden-4-ylidene)ethylidene)cyclohexane-1,3-diol] showed an EC50 [1] of 10 to 100 nM and an activation at 1 µM [2] of no less than 20%.
C=C1C(O)CC(=C/C=C2\CCC[C@]3(C)[C@@H]([C@H](C)CN4CC[C@](C)(O)C4)CC[C@@H]23)C[C@H]1O (stereo in doubt) [Compound B073, (1R,3S)-5-(2-((1R,3aS,7aR,E)-1-((S)-1-((S)-3-hydroxy-3-methylpyrrolidin-1-yl)propan-2-yl)-7a-methyloctahydro-4H-inden-4-ylidene)ethylidene)-2-methylenecyclohexane-1,3-diol] showed an EC50 [1] of 1 to 10 nM and an activation at 1 µM [2] of no less than 20%.
Work on C=C1/C(=C\C=C2/CCC[C@]3(C)[C@@H]([C@H](C)CCN4CCO[C@H](C)C4)CC[C@@H]23)C[C@@H](O)CC1O (stereo in doubt) [Compound D047, (1R,3R,Z)-5-(2-((1R,3aS,7aR,E)-7a-methyl-1-((R)-4-((R)-2-methylmorpholino)butan-2-yl)octahydro-4H-inden-4-ylidene)ethylidene)-4-methylenecyclohexane-1,3-diol] yielded an activation at 1 µM [2] of no less than 20%.
For C=C1/C(=C\C=C2/CCC[C@]3(C)[C@@H]([C@H](C)CCN4CCO[C@@H](C)C4)CC[C@@H]23)C[C@@H](O)CC1O (stereo in doubt) [Compound D048, (1R,3R,Z)-5-(2-((1R,3aS,7aR,E)-7a-methyl-1-((R)-4-((S)-2-methylmorpholino)butan-2-yl)octahydro-4H-inden-4-ylidene)ethylidene)-4-methylenecyclohexane-1,3-diol], the activation at 1 µM [2] was no less than 20%.
Work on C=C1[C@H](O)CC(=C/C=C2\CCC[C@]3(C)[C@@H]([C@H](C)CN4CC(CC(F)F)C4)CC[C@@H]23)C[C@H]1O [Compound A019, (1R,3R)-5-(2-((1R,3aS,7aR,E)-1-((S)-1-(3-(2,2-difluoroethyl)azetidin-1-yl)propan-2-yl)-7a-methyloctahydro-4H-inden-4-ylidene)ethylidene)-2-methylenecyclohexane-1,3-diol] yielded an EC50 [1] of 10 to 100 nM and an activation at 1 µM [2] of no less than 20%.
Work on C=C1[C@H](O)CC(=C/C=C2\CCC[C@]3(C)[C@@H]([C@H](C)CN4CC[C@H](C)C4)CC[C@@H]23)C[C@H]1O [Compound B002, (1R,3R)-5-(2-((1R,3aS,7aR,E)-7a-methyl-1-((S)-1-((S)-3-methylpyrrolidin-1-yl)propan-2-yl)octahydro-4H-inden-4-ylidene)ethylidene)-2-methylenecyclohexane-1,3-diol] yielded an EC50 [1] of 10 to 100 nM and an activation at 1 µM [2] of no less than 20%.
In the case of C[C@H](CN1CCOC2(CC2)C1)[C@H]1CC[C@H]2/C(=C/C=C3C[C@@H](O)C[C@H](O)C3)CCC[C@]12C [Compound D019, (1R,3R)-5-(2-((1R,3aS,7aR,E)-1-((S)-1-(4-oxa-7-azaspiro[2.5]octan-7-yl)propan-2-yl)-7a-methyloctahydro-4H-inden-4-ylidene)ethylidene)cyclohexane-1,3-diol], the EC50 [1] is reported as 10 to 100 nM, the “Mean (number of MBP-positive cells/number of Hoechst33342-positive cells)” value [3] is reported as 0.57 and the “Concentration in blood (mean ± SD) at brain Cmax” value ([4]; n=3) is reported as 280 ± 53 nM. The “Concentration in brain (mean ± SD) at brain Cmax” value ([4]; n=3) was 811 ± 163 pmol/g and the Kp ([4]; male, mouse, brain/plasma, read-out: Concentration in brain/in blood ratio at brain Cmax) was 2.89.
With C=C1/C(=C\C=C2/CCC[C@]3(C)[C@@H]([C@H](C)CCN4CCO[C@@H](C(F)F)C4)CC[C@@H]23)C[C@@H](O)C[C@@H]1O [Compound D037, (1R,3 S,Z)-5-(2-((1R,3aS,7aR,E)-1-((R)-4-((R)-2-(difluoromethyl)morpholino)butan-2-yl)-7a-methyloctahydro-4H-inden-4-ylidene)ethylidene)-4-methylenecyclohexane-1,3-diol] the activation at 1 µM [2] was no less than 20%.
C=C1[C@H](O)CC(=C/C=C2\CCC[C@]3(C)[C@@H]([C@H](C)CCN4C[C@@H](C)OC[C@@H]4C)CC[C@@H]23)C[C@H]1O [Compound D038, (1R,3R)-5-(2-((1R,3aS,7aR,E)-1-((R)-4-((2R,5S)-2,5-dimethylmorpholino)butan-2-yl)-7a-methyloctahydro-4H-inden-4-ylidene)ethylidene)-2-methylenecyclohexane-1,3-diol] gave an activation at 1 µM [2] of no less than 20%.
